In patent US12037344B2, “NLRP3 modulators” (INNATE TUMOR IMMUNITY, INC., priority 2018, dated 2024):
Like-named read-outs stand apart in the source and are kept apart here.

How the values were obtained:
TLR7 = molecular target: T1, TLR7 (Homo sapiens, UniProt Q9NYK1); assay: In vitro human TLR7 binding reporter assay (HEK-Blue, NF-kB/AP1-inducible SEAP); type: cell-based; settings: read-out: TLR7 Agonist EC50
T1 construct: human HEK-Blue cells co-expressing a TLR7 or TLR8 gene
T1 sequence (Q9NYK1 27-1049): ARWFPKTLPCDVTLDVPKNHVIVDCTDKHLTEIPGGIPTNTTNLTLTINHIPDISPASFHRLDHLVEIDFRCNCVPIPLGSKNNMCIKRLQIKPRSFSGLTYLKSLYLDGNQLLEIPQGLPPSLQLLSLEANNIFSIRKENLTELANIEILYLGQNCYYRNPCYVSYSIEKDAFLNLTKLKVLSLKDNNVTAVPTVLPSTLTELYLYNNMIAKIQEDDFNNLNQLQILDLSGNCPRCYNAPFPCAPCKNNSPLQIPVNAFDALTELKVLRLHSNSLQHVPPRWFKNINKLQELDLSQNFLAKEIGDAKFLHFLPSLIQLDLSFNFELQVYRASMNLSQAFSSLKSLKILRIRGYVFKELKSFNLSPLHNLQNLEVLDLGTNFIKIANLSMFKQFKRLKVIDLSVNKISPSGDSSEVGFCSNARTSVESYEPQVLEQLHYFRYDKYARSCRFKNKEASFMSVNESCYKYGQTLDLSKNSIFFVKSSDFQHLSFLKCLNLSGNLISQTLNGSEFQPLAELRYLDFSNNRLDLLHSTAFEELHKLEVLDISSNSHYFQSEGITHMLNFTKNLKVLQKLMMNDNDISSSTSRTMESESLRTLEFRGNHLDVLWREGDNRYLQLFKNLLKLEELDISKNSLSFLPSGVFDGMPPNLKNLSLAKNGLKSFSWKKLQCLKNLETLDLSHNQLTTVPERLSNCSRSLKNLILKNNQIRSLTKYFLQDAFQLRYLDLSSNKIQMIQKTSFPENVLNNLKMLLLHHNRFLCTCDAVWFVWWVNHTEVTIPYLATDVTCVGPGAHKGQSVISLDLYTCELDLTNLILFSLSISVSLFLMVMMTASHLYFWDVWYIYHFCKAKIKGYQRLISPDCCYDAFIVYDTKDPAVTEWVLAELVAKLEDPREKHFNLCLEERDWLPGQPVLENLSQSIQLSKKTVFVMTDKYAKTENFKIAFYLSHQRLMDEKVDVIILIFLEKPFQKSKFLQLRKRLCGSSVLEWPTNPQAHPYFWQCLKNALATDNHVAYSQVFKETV
In short: (§1)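 Cells are seeded and grown for 24 h. Compounds or DMSO are then added and incubated 18 h at 37 °C. Quanti-Blue is added, and SEAP is read after thirty minutes. EC50 values are normalized, with RLU from 50 μM reference standard setting 100% Ymax.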

TLR8 = molecular target: T2, TLR8 (Homo sapiens, UniProt Q9NR97); assay: In vitro human TLR8 binding reporter assay (HEK-Blue, NF-kB/AP1-inducible SEAP); type: cell-based; settings: read-out: TLR8 Agonist EC50
T2 construct: human HEK-Blue cells co-expressing a TLR7 or TLR8 gene
T2 sequence (Q9NR97 27-1041): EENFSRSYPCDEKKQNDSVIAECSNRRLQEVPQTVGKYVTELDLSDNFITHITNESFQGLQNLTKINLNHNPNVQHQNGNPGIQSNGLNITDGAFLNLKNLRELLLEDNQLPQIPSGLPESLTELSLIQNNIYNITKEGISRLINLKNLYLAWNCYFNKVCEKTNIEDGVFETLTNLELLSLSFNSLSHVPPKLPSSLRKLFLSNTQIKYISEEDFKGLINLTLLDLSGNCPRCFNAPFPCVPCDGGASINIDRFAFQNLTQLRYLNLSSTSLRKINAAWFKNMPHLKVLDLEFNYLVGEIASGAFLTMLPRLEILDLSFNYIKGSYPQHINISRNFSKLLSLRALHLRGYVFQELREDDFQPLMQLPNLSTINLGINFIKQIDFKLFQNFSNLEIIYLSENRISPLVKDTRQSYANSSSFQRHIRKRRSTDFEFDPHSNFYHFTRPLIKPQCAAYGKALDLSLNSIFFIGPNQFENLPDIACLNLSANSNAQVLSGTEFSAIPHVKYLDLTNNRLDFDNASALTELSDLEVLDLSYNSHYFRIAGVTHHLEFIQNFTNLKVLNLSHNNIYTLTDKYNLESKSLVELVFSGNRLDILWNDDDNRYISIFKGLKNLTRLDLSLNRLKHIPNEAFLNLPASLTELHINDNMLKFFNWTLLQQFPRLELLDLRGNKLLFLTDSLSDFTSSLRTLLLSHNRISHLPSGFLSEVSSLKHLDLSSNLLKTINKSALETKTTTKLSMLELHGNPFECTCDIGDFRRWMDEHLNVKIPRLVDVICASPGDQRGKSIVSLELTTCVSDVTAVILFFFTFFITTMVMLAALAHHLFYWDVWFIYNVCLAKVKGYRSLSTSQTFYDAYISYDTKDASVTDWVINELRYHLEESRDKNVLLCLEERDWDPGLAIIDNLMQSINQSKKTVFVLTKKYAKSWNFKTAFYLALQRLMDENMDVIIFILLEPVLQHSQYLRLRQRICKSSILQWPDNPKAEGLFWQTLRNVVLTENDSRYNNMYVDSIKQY
In short: as §1

THP-1 cells = assay: Measurement of IL-1β production, hTRF protocol (second alternative procedure), THP-1 cells; type: cell-based, human; settings: read-out: NLRP3 hILIB EC50
In short: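 THP-1 cells differentiated overnight with 50 ng/ml PMA, then plated at 50,000 cells/well in RPMI with 2% FBS onto serial compound dilutions (top final concentration 10 μM) for 2 hours at 37° C. Supernatant IL-1β measured by hTRF (antibodies at 1:40, overnight at 4° C), read at 665/615 nm against a standard curve.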

[1] = Homo sapiens, THP-1, IL-1β production, human
[2] = Homo sapiens, THP-1, IL-1β production, human cells

Row | Structure (SMILES) | EC50 (TLR7; activity range class) [µM] | EC50 (TLR8; activity range class) [µM] | EC50 (THP-1 cells; [1]) [µM] | EC50 (TLR7; activity range) [µM] | EC50 (TLR8; activity range) [µM] | EC50 (THP-1 cells; [2]) [µM] | EC50 (THP-1 cells; IL-1β production, human) [µM]
1 | CN(C)CCn1cc2c(n1)c(N)nc1cc(-c3cc[nH]n3)ccc12 [Example 21] | 20 to 100 | > 100 | 2.08 |  |  |  | 
2 | Nc1nc2cc(-c3cc[nH]n3)c(F)cc2c2nn(CCO)cc12 [Example 404] |  |  |  | > 100 | > 100 | 0.74 | 
3 | Nc1nc2cc(-n3cccn3)ccc2c2nn(CCc3c[nH]cn3)cc12 [Example 391] | > 100 | > 100 | 0.2 |  |  |  | 
4 | CC(C)(Cn1cc2c(N)nc3cc(-c4ccn[nH]4)ccc3c2n1)C(=O)NCCS(C)(=O)=O [Example 609] |  |  |  | > 100 | > 100 | 18.1 | 
5 | CNC(=O)Cn1cc2c(N)nc3cc(-n4cccn4)ccc3c2n1 [Example 554] |  |  |  | > 100 | > 100 | 0.46 | 
6 | Cc1nc(C(=O)NCCn2cc3c(N)nc4cc(-c5cc[nH]n5)ccc4c3n2)co1 [Example 198] | > 100 | > 100 | 0.11 |  |  |  | 
7 | CCOCCn1cc2c(n1)c(N)nc1cc(-c3ccn[nH]3)ccc12 [Example 190] | > 100 | > 100 | 0.22 |  |  |  | 
8 | Nc1nc2cc(-c3cc[nH]n3)ccc2c2nn(C3CCCC3O)cc12 (single isomer, unassigned) [Example 316] | > 100 | > 100 |  |  |  |  | 0.89
9 | CC(CCO)n1cc2c(N)nc3cc(-c4cc[nH]n4)ccc3c2n1 (single isomer, unassigned) [Example 288, 3-(4-amino-7-(1H-pyrazol-3-yl)-2H-pyrazolo[4,3-c]quinolin-2-yl)butan-1-ol] | > 100 | > 100 |  |  |  |  | 0.45
10 | Nc1nc2cc(-c3cc[nH]n3)ccc2c2cn(Cc3nc(-c4ccccc4)no3)nc12 [Example 169] | > 100 | 20 to 100 | 0.39 |  |  |  | 
11 | Nc1nc2cc(-c3cc[nH]n3)ccc2c2nn(C[C@H]3CCC(=O)N3)cc12 [Example 385] | > 100 | > 100 | 2.51 |  |  |  | 
12 | Nc1nc2cc(-c3cc[nH]n3)ccc2c2cn(CCNC(=O)c3cocn3)nc12 [Example 44] | > 100 | > 100 | 0.63 |  |  |  | 
13 | NC(=O)CCn1cc2c(N)nc3cc(-c4cc[nH]n4)ccc3c2n1 [Example 462] |  |  |  | > 100 | > 100 | 0.22 | 
14 | Nc1nc2cc(-c3cc[nH]n3)ccc2c2cn(CCNC(=O)c3cnco3)nc12 [Example 84] | > 100 | > 100 | 1.79 |  |  |  | 
15 | Nc1nc2cc(-c3cc[nH]n3)ccc2c2cn(CCNc3ccccn3)nc12 [Example 194, 7-(1H-pyrazol-3-yl)-2-(2-(pyridin-2-ylamino)ethyl)-2H-pyrazolo[3,4-c]quinolin-4-amine] | > 100 | > 100 | 0.22 |  |  |  | 
16 | COC1CN(CCn2ncc3c(N)nc4cc(-c5cc[nH]n5)ccc4c32)C1 [Example 435] |  |  |  | > 100 | > 100 | 3.61 | 
